These compounds were tested against T1, wild-type HIV-1 protease (Human immunodeficiency virus type 1 group M subtype B, UniProt P04585) (assay: Assay for Inhibition of Microbial Expressed HIV Protease (peptide substrate cleavage, LC-MS/MS readout)). Settings: E. coli expressed wild-type HIV-1 protease, mean of at least two independent experiments, read-out: HIV Pr Enzyme HIV1 PR IC50.
T1 construct: Escherichia coli expressed wild-type HIV-1 protease protein
Type: biochemical
Method in brief: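 E. coli-expressed wild-type HIV-1 protease ([…]) was preincubated with inhibitor 30 min at room temperature in pH 5.5 acetate buffer (100 mM NaCl, 0.1% BSA). Then 400 μM octapeptide substrate was added and reacted 1 h at 30 °C; inhibition came from LC-MS/MS product peak areas, mean of ≥2 experiments.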

SMILES | IC50 [nM]
N=C1NC(c2ccc(F)cc2)(c2cccc(Br)c2)C(=O)N1Cc1cccc(C(=O)N2Cc3[nH]nc(C(F)(F)F)c3C2)c1 (stereo not shown) [Compound 212, 5-(3-bromophenyl)-5-(4-fluorophenyl)-2-imino-3-(3-{[3-(trifluoromethyl)-4,6-dihydropyrrolo [3,4-c]pyrazol-5(1H)-yl]carbonyl}benzyl) imidazolidin-4-one] | 9.49
N=C1NC(c2ccccc2)(c2ccc(Br)cc2)C(=O)N1Cc1cccc(C(=O)N2Cc3ccccc3C2)c1 (stereo not shown) [Compound 213, 5-(4-bromophenyl)-3-[3-(1,3-dihydro-2H-isoindol-2-ylcarbonyl)benzyl]-2-imino-5-phenylimidazolidin-4-one] | 9.77
Cc1cc2c(cn1)CN(C(=O)c1cccc(CN3C(=N)NC(c4ccccc4)(c4ccccc4)C3=O)c1)C2 [Compound 214, 2-imino-3-{3-[(6-methyl-1,3-dihydro-2H-pyrrolo[3,4-c]pyridin-2-yl)carbonyl]benzyl}-5,5-diphenylimidazolidin-4-one] | 9.81
N=C1NC(c2ccc(F)cc2)(c2ccc(F)cc2)C(=O)N1Cc1cccc(C(=O)N2Cc3cncnc3C2)c1 [Compound 215, 3-[3-(5,7-dihydro-6H-pyrrolo[3,4-d]pyrimidin-6-ylcarbonyl)benzyl]-5,5-bis(4-fluorophenyl)-2-iminoimidazolidin-4-one] | 23
CC(C)CC[C@]1(c2ccccc2)NC(=N)N([C@H](C)c2cccc(C(=O)N3Cc4cncnc4C3)c2)C1=O [Compound 216, 3-{(1R)-1-[3-(5,7-dihydro-6H-pyrrolo[3,4-d]pyrimidin-6-ylcarbonyl)phenyl]ethyl}-2-imino-5-(3-methylbutyl)-5-phenylimidazolidin-4-one] | 10.2
CC(C)CC[C@]1(c2ccccc2)NC(=N)N([C@H](C)c2cccc(C(=O)N3Cc4nccnc4C3)c2)C1=O [Compound 217, 3-{(1R)-1-[3-(5,7-dihydro-6H-pyrrolo[3,4-b]pyrazin-6-ylcarbonyl)phenyl]ethyl}-2-imino-5-(3-methylbutyl)-5-phenylimidazolidin-4-one] | 10.3
CC(C)CCC1(c2ccccc2)NC(=N)N(Cc2cccc(C(=O)N3Cc4cccnc4C3)c2)C1=O (stereo not shown) [Compound 218, 3-[3-(5,7-dihydro-6H-pyrrolo[3,4-b]pyridin-6-ylcarbonyl)benzyl]-2-imino-5-(3-methylbutyl)-5-phenylimidazolidin-4-one] | 10.5
N=C1NC(c2ccccc2)(c2ccccc2)C(=O)N1Cc1cccc(C(=O)N2Cc3nccnc3C2)c1 [Compound 219, 3-[3-(5,7-dihydro-6H-pyrrolo[3,4-b]pyrazin-6-ylcarbonyl)benzyl]-2-imino-5,5-diphenylimidazolidin-4-one] | 11
CN(C)c1ncnc2c1CN(C(=O)c1cccc(CN3C(=N)NC(c4ccc(F)cc4)(c4ccc(F)cc4)C3=O)c1)C2 [Compound 220, 3-(3-{[4-(dimethylamino)-5,7-dihydro-6H-pyrrolo[3,4-d]pyrimidin-6-yl]carbonyl}benzyl)-5,5-bis(4-fluorophenyl)-2-iminoimidazolidin-4-one] | 11
COC(=O)N1CCN(C(=O)c2cccc([C@@H](C)N3C(=N)N[C@](CCC(C)C)(c4ccccc4)C3=O)c2)CC1 [Compound 221, methyl 4-[(3-{(1R)-1-[2-imino-4-(3-methylbutyl)-5-oxo-4-phenyl-imidazolidin-1-yl]ethyl}phenyl)-carbonyl]piperazine-1-carboxylate] | 11.1
CC(C)CC1(c2ccccc2)NC(=N)N(Cc2cccc(C(=O)N3Cc4cnc(C#N)nc4C3)c2)C1=O (stereo not shown) [Compound 222, 6-[(3-{[2-imino-4-(2-methylpropyl)-5-oxo-4-phenylimidazolidin-1-yl]methyl}phenyl)carbonyl]-6,7-dihydro-5H-pyrrolo[3,4-d]pyrimidine-2-carbonitrile] | 11.1
CC(c1cccc(C(=O)N2Cc3ccccc3C2)c1)N1C(=N)NC(c2ccccc2)(c2ccccc2)C1=O (stereo not shown) [Compound 224, 3-{1-[3-(1,3-dihydro-2H-isoindol-2-ylcarbonyl)phenyl]ethyl}-2-imino-5,5-diphenylimidazolidin-4-one] | 11.9
CCC(c1cccc(C(=O)N2Cc3ccccc3C2)c1)N1C(=N)NC(c2ccccc2)(c2ccccc2)C1=O (stereo not shown) [Compound 225, 3-{1-[3-(1,3-dihydro-2H-isoindol-2-ylcarbonyl)phenyl]propyl}-2-imino-5,5-diphenylimidazolidin-4-one] | 11.9
Cc1cc2c(cn1)CN(C(=O)c1cccc(CN3C(=N)NC(c4ccc(F)cc4)(c4ccc(F)cc4)C3=O)c1)C2 [Compound 226, 5,5-bis(4-fluorophenyl)-2-imino-3-{3-[(6-methyl-1,3-dihydro-2H-pyrrolo[3,4-c]pyridin-2-yl)carbonyl]benzyl} imidazolidin-4-one] | 12.4
CC(C)CCC1(c2ccccc2)NC(=N)N(Cc2cccc(C(=O)N3Cc4cncnc4C3)c2)C1=O (stereo not shown) [Compound 227, 3-[3-(5,7-dihydro-6H-pyrrolo[3,4-d]pyrimidin-6-ylcarbonyl)benzyl]-2-imino-5-(3-methylbutyl)-5-phenylimidazolidin-4-one] | 12.6
C[C@H](c1cccc(C(=O)N2Cc3cncnc3C2)c1)N1C(=N)NC(c2ccccc2)(c2ccccc2)C1=O [Compound 228, 3-{(1R)-1-[3-(5,7-dihydro-6H-pyrrolo[3,4-d]pyrimidin-6-ylcarbonyl)phenyl]ethyl}-2-imino-5,5-diphenylimidazolidin-4-one] | 13.1
CC(C)CCC1(c2ccc(F)cc2)NC(=N)N(Cc2cccc(C(=O)N3Cc4ccccc4C3)c2)C1=O (stereo not shown) [Compound 229, 3-[3-(1,3-dihydro-2H-isoindol-2-ylcarbonyl)benzyl]-5-(4-fluorophenyl)-2-imino-5-(3-methylbutyl)imidazolidin-4-one] | 13.1
N=C1NC(c2ccccc2)(c2ccccc2)C(=O)N1Cc1cccc(C(=O)N2CCN(c3ncccn3)CC2)c1 [Compound 230, 2-imino-5,5-diphenyl-3-{3-[(4-pyrimidin-2-ylpiperazin-1-yl)carbonyl]benzyl} imidazolidin-4-one] | 13.1
C[C@H](c1cccc(C(=O)N2Cc3ccccc3C2)c1)N1C(=N)NC(c2ccc(F)cc2)(c2ccc(F)cc2)C1=O [Compound 231, 3-{(1R)-1-[3-(1,3-dihydro-2H-isoindol-2-ylcarbonyl)phenyl]ethyl}-5,5-bis(4-fluorophenyl)-2-iminoimidazolidin-4-one] | 13.3
N=C1NC(c2ccc(F)cc2)(c2ccc(F)cc2)C(=O)N1Cc1cccc(C(=O)N2Cc3ccc(F)cc3C2)c1 [Compound 232, 3-{3-[(5-fluoro-1,3-dihydro-2H-isoindol-2-yl)carbonyl]benzyl}-5,5-bis(4-fluorophenyl)-2-iminoimidazolidin-4-one] | 13.5
N=C1NC(c2ccccc2)(c2ccccc2)C(=O)N1Cc1cccc(C(=O)N2Cc3ccc(C(F)(F)F)cc3C2)c1 [Compound 233, 2-imino-5,5-diphenyl-3-(3-{[5-(trifluoromethyl)-1,3-dihydro-2H-isoindol-2-yl]carbonyl}benzyl)-imidazolidin-4-one] | 14
COC(=O)N1CCN(C(=O)c2cccc(CN3C(=N)NC(c4ccc(F)cc4)(c4cccc(-c5cccc(C#N)c5)c4)C3=O)c2)CC1 (stereo not shown) [Compound 234, methyl 4-[(3-{[4-(3′-cyanobiphenyl-3-yl)-4-(4-fluorophenyl)-2-imino-5-oxoimidazolidin-1-yl]methyl}phenyl)-carbonyl]piperazine-1-carboxylate] | 14.2

Source: patent publication US20200069691A1, “HETEROCYCLIC COMPOUNDS AS HIV PROTEASE INHIBITORS” (Merck Sharp & Dohme Corp., priority 2016, published 2020)
